Experimental data taken from article PMC10913730, “Antimicrobial activity of a natural compound and analogs against multi-drug-resistant Gram-positive pathogens” (Microbiology Spectrum, 2024).
Like-named read-outs stand apart in the source and are kept apart here.

How the values were obtained:
[1] = pH and Ka of 10-g/L aqueous solutions (pH meter); type: physicochemical; conditions: 10-g/L solution in distilled, deionized water
MRSA isolates = assay: MIC/MBC, CLSI broth microdilution, MRSA isolates; type: cell-based, Staphylococcus aureus
[2] = tested on: human dermal fibroblast (HDF) cells; assay: alamarBlue cell viability assay, HDF; conditions: HDFs, 24-hour incubation, non-linear regression
[3] = tested on: human bronchial epithelial (16HBE) cells; assay: alamarBlue cell viability assay, 16HBE; conditions: 24-hour incubation, non-linear regression
[4] = tested on: erythrocytes (sheep blood); assay: Hemolytic activity against sheep erythrocytes
[5] = Aqueous solubility of compounds reconstituted at 10 mg/mL in water; conditions: 10 mg/mL in distilled deionized water
[6] = Staphylococcus aureus, MRSA, pH 5.5, MRSA 0606, pH 5.5
[7] = Staphylococcus aureus, MRSA, pH 5.5, MRSA 0608, pH 5.5
[8] = Staphylococcus aureus, MRSA, pH 5.5, MRSA 0634, pH 5.5
[9] = Staphylococcus aureus, MRSA, pH 5.5, MRSA 0641, pH 5.5
[10] = Staphylococcus aureus, MRSA, pH 5.5, MRSA 0646, pH 5.5
[11] = Staphylococcus aureus, MRSA, pH 5.5, TCH 1516, pH 5.5
[12] = Staphylococcus aureus, MRSA, pH 6.5, MRSA 0606, pH 6.5
[13] = Staphylococcus aureus, MRSA, pH 6.5, MRSA 0608, pH 6.5
[14] = Staphylococcus aureus, MRSA, pH 6.5, MRSA 0634, pH 6.5
[15] = Staphylococcus aureus, MRSA, pH 6.5, MRSA 0641, pH 6.5
[16] = Staphylococcus aureus, MRSA, pH 6.5, MRSA 0646, pH 6.5
[17] = Staphylococcus aureus, MRSA, pH 6.5, TCH 1516, pH 6.5
[18] = Staphylococcus aureus, MRSA, pH 7.4, MRSA 0606, pH 7.4
[19] = Staphylococcus aureus, MRSA, pH 7.4, MRSA 0608, pH 7.4
[20] = Staphylococcus aureus, MRSA, pH 7.4, MRSA 0634, pH 7.4
[21] = Staphylococcus aureus, MRSA, pH 7.4, MRSA 0641, pH 7.4
[22] = Staphylococcus aureus, MRSA, pH 7.4, MRSA 0646, pH 7.4
[23] = Staphylococcus aureus, MRSA, pH 7.4, TCH 1516, pH 7.4

With `[Na+].[Na+].[O-]c1c(Cl)cc(Cl)cc1-c1cc(Cl)cc(Cl)c1[O-]` [C59Na] the “acid dissociation constant (Ka)” value [1] was 1.54 × 10^−16, the pH of solution ([1]; room temperature) was 8.69 and the MIC90 (MRSA isolates; Staphylococcus aureus, MRSA, 39 evaluated MRSA isolates, CLSI broth microdilution) was 4 µg/mL. It also gave an MBC (MRSA isolates; [6]) of 0.25 µg/mL, an MIC (MRSA isolates; [6]) of 0.25 µg/mL and an MBC (MRSA isolates; [7]) of 0.25 µg/mL. The MIC (MRSA isolates; [7]) was 0.25 µg/mL, the MBC (MRSA isolates; [8]) was 0.25 µg/mL and the MIC (MRSA isolates; [8]) was 0.25 µg/mL. It also gave an MBC (MRSA isolates; [9]) of 0.25 µg/mL, an MIC (MRSA isolates; [9]) of 0.25 µg/mL and an MBC (MRSA isolates; [10]) of 0.25 µg/mL. The MIC (MRSA isolates; [10]) was 0.25 µg/mL, the MBC (MRSA isolates; [11]) was 0.25 µg/mL and the MIC (MRSA isolates; [11]) was 0.25 µg/mL. It also gave an MBC (MRSA isolates; Staphylococcus aureus, MRSA, pH 5.5, read-out: Average MBC, average of six MRSA isolates, pH 5.5) of 0.25 µg/mL, an MIC (MRSA isolates; Staphylococcus aureus, MRSA, pH 5.5, read-out: Average MIC, average of six MRSA isolates, pH 5.5) of 0.25 µg/mL and an MBC (MRSA isolates; [12]) of 1 µg/mL. For the same molecule, the MIC (MRSA isolates; [12]) was 0.5 µg/mL, the MBC (MRSA isolates; [13]) was 1 µg/mL and the MIC (MRSA isolates; [13]) was 1 µg/mL. For the same molecule, the MBC (MRSA isolates; [14]) was 1 µg/mL, the MIC (MRSA isolates; [14]) was 1 µg/mL and the MBC (MRSA isolates; [15]) was 1 µg/mL. It also gave an MIC (MRSA isolates; [15]) of 0.5 µg/mL, an MBC (MRSA isolates; [16]) of 1 µg/mL and an MIC (MRSA isolates; [16]) of 0.5 µg/mL. It also gave an MBC (MRSA isolates; [17]) of 2 µg/mL, an MIC (MRSA isolates; [17]) of 1 µg/mL and an MBC (MRSA isolates; Staphylococcus aureus, MRSA, pH 6.5, read-out: Average MBC, average of six MRSA isolates, pH 6.5) of 1.2 µg/mL. It also gave an MIC (MRSA isolates; Staphylococcus aureus, MRSA, pH 6.5, read-out: Average MIC, average of six MRSA isolates, pH 6.5) of 0.75 µg/mL, an MBC (MRSA isolates; [18]) of 2 µg/mL and an MIC (MRSA isolates; [18]) of 2 µg/mL. It also gave an MBC (MRSA isolates; [19]) of 4 µg/mL, an MIC (MRSA isolates; [19]) of 2 µg/mL and an MBC (MRSA isolates; [20]) of 2 µg/mL. It also gave an MIC (MRSA isolates; [20]) of 2 µg/mL, an MBC (MRSA isolates; [21]) of 4 µg/mL and an MIC (MRSA isolates; [21]) of 2 µg/mL. The MBC (MRSA isolates; [22]) was 4 µg/mL, the MIC (MRSA isolates; [22]) was 1 µg/mL and the MBC (MRSA isolates; [23]) was 2 µg/mL. The MIC (MRSA isolates; [23]) was 2 µg/mL, the MBC (MRSA isolates; Staphylococcus aureus, MRSA, pH 7.4, read-out: Average MBC, average of six MRSA isolates, pH 7.4) was 3 µg/mL and the MIC (MRSA isolates; Staphylococcus aureus, MRSA, pH 7.4, read-out: Average MIC, average of six MRSA isolates, pH 7.4) was 1.8 µg/mL. For the same molecule, the MBC (MRSA isolates; Staphylococcus aureus, MRSA, read-out: MBC90, 39 evaluated MRSA isolates, CLSI broth microdilution) was 12 µg/mL, the “change of MIC and MBC with the reduction in pH” value (MRSA isolates; six MRSA isolates, pH lowered to 5.5) was “decreased” and the LD50 [2] was 57.5 µg/mL. For the same molecule, the LD50 [3] was 30.0 µg/mL, the “concentrations at which erythrocytes were not lysed” value ([4]; 1% sheep blood, 1-hour incubation) was “up to 24 µg/mL” and the “LD50 relative to MIC90” value ([4]; higher than MIC90, stated in the hemolysis discussion, cell type not named) was 10 fold. For the same molecule, the aqueous solubility [5] was “moderate aqueous solubility”.
